# Source: patent publication US4361563A, “Pyridazinone-substituted benzimidazoles and salts” (priority 1978, dated 1982)
# Where a name gives a salt, the structure may show the parent alone.
# Legend:
# [1] = test system: cats; assay: Determination of the hypotensive and positive inotropic activity in the cat; format: in vivo; details: for change in vivo at 0.1 mg/kg / change in vivo at 0.5 mg/kg / change in vivo at 2 mg/kg: Felis catus, iv, read-out: Change of dp/dt in %
# Procedure: TEST 2. DETERMINATION OF THE HYPOTENSIVE AND POSITIVE INOTROPIC ACTIVITY IN THE CAT
# The tests were performed in cats which were anesthetized with pentobarbital sodium (40 mg/kg i.p.). The animals breathed spontaneously. The arterial blood pressure was measured in the aorta abdominalis by a Statham pressure transducer (P 23 Dc). The positive inotropic effect was determined by measuring the pressure in the left […] by means of a catheter tipmanometer (Millar PC 350 A). This contractility parameter dp/dtmax was registered by means of an analog differentiating circuit. The substances under test were injected into a vena femoralis. Physiological sodium […] solution or polydiol 200 was used as solvent.
# [2] = Acute toxicity, single oral dose; format: in vivo; details: mouse, in vivo, po; read-out: Acute toxicity mg/kg p.o.
# Procedure: (§1) The acute toxicity of the substances tested was determined in white mice after oral adminstration of a single dose (observation time: 14 days).
# [3] = test system: white mice; assay: Acute toxicity, single oral dose; format: in vivo; details: white mice, 14 days observation
# Procedure: as §1
# [4] = test system: thrombocyte aggregation; assay: Determination of the thrombocyte aggregation according to Born and Cross (collagen-provoked, platelet-rich plasma); format: cell-based, healthy test persons; details: collagen-induced aggregation
# Procedure: TEST 1. DETERMINATION OF THE THROMBOCYTE AGGREGATION ACCORDING TO BORN AND CROSS [J. PHYSIOL. 170, 397 (1964)].
# The thrombocyte aggregation was measured in platelet-rich plasma of healthy test persons. The decrease of the optical density was photometrically measured and recorded after addition of commercial collagen (Sigma, St. Louis, Mo., USA) which contained […] of collagen-fibrils per ml. The velocity of aggregation (Vmax) was determined by the angle of inclination of the density curve. The point of the curve, where the most light was transmitted, served for the determination of the optical density (o.d.). To provoke maximum aggregation, approximately 0.01 ml of the collagen solution was added to 1 ml of platelet-rich plasma.
# [5] = 0.5 mg/kg i.v., initial phase before decrease
Compound,"Change of blood pressure, first value of the pair (before the slash) ([1]; 0.1 mg/kg i.v.)","Change of blood pressure, second value of the pair (after the slash) ([1]; 0.1 mg/kg i.v.)",Duration of action ([1]; 0.1 mg/kg i.v.),"Change of blood pressure, first value of the pair (before the slash) ([1]; 0.5 mg/kg i.v.)","Change of blood pressure, second value of the pair (after the slash) ([1]; 0.5 mg/kg i.v.)",Duration of action ([1]; 0.5 mg/kg i.v.),change in vivo at 0.1 mg/kg ([1]; 0.1 mg/kg i.v.),change in vivo at 0.5 mg/kg ([1]; 0.5 mg/kg i.v.),other results
"CC1CC(=O)NN=C1c1ccc2[nH]c(C(F)(F)F)nc2c1 (stereo not drawn) [B, 2-Trifluoromethyl-5(6)-(5-methyl-3-oxo-4,5-dihydro-2H-6-pyridazinyl)-benzimidazole]",-65 mgm Hg,-35 mgm Hg,> 55 min,-49 mgm Hg,-43 mgm Hg,> 99 min,91%,143%,LD50 at 336 h [2]: > 450 mg/kg; animals died ([3]; 450 mg/kg p.o.): 0 out of 6; EC50 [4]: 100 nM
"CC1CC(=O)NN=C1c1ccc2[nH]cnc2c1 (stereo not drawn) [C, 5(6)-(5-Methyl-3-oxo-4,5-dihydro-2H-6-pyridazinyl)-benzimidazole]",–,–,–,-55 mgm Hg,-48 mgm Hg,> 172 min,–,159%,EC50 [4]: 120 nM
"Cc1nc2cc(C3=NNC(=O)CC3C)ccc2[nH]1 (stereo not drawn) [Compound A, 2-Methyl-5(6)-(5-methyl-3-oxo-4,5-dihydro-2H-6-pyridazinyl)-benzimidazole]",-26 mgm Hg,-24 mgm Hg,> 24 min,-35 mgm Hg,-42 mgm Hg,> 187 min,53%,116%,LD50 at 336 h [2]: > 600 mg/kg; animals died ([3]; 600 mg/kg p.o.): 1 out of 3; EC50 [4]: 10 nM
"COc1ccc(-c2nc3cc(C4=NNC(=O)CC4C)ccc3[nH]2)c(OC)c1 (stereo not drawn) [Compound E, 2-(2,4-Dimethoxy-phenyl)-5(6)-(5-methyl-3-oxo-4,5-dihydro-2H-6-pyridazinyl)-benzimidazole]",–,–,–,-28 mgm Hg,-33 mgm Hg,> 55 min,–,89%,–
"CC1CC(=O)NN=C1c1ccc2[nH]c(-c3ccccc3F)nc2c1 (stereo not drawn) [D, 2-(2-Fluoro-phenyl)-5(6)-(5-methyl-3-oxo-4,5-dihydro-2H-6-pyridazinyl)-benzimidazole]",–,–,–,–,-10 mgm Hg,> 69 min,–,107%,LD50 at 336 h [2]: > 600 mg/kg; animals died ([3]; 600 mg/kg p.o.): 0 out of 6
"CSc1nc2cc(C3=NNC(=O)CC3C)ccc2[nH]1 (stereo not drawn) [F, 2-Methylmercapto-5(6)-(5-methyl-3-oxo-4,5-dihydro-2H-6-pyridazinyl)-benzimidazole]",-36 mgm Hg,-40 mgm Hg,> 28 min,-48 mgm Hg,-66 mgm Hg,> 32 min,51%,50%,–
"Cc1ccc(-c2nc3cc(C4=NNC(=O)CC4C)ccc3[nH]2)cc1 (stereo not drawn) [H, 2-(4-Methyl-phenyl)-5(6)-(5-methyl-3-oxo-4,5-dihydro-2H-6-pyridazinyl)-benzimidazole]",–,–,–,-10 mgm Hg,-10 mgm Hg,> 69 min,–,118%,"duration of decrease of blood pressure ([1]; 0.5 mg/kg i.v., decrease after 1 minute): > 50 min; initial increase of blood pressure, first value of the pair [1, 5]: 33 mgm Hg; initial increase of blood pressure, second value of the pair [1, 5]: 18 mgm Hg; LD50 at 336 h [2]: > 600 mg/kg; animals died ([3]; 600 mg/kg p.o.): 0 out of 6"
"CCCC(C)c1nc2cc(C3=NNC(=O)CC3C)ccc2[nH]1 (stereo not drawn) [I, 2-(2-Pentyl)-5(6)-(5-methyl-3-oxo-4,5-dihydro-2H-6-pyridazinyl)-benzimidazole hydrochloride]",-10 mgm Hg,-13 mgm Hg,> 53 min,-28 mgm Hg,-33 mgm Hg,> 52 min,83%,103%,–
"COc1ccc(-c2nc3cc(C4=NNC(=O)CC4C)ccc3n2C)cc1 (stereo not drawn) [K, 1-Methyl-2-(4-methoxy-phenyl)-5-(5-methyl-3-oxo-4,5-dihydro-2H-6-pyridazinyl)-benzimidazole]",–,–,–,-28 mgm Hg,-34 mgm Hg,> 40 min,–,50%,–
"Cc1nc2cc(C3=NNC(=O)CC3C)ccc2n1CCC(C)C (stereo not drawn) [L, 1-(3-Methyl-butyl)-2-methyl-5-(5-methyl-3-oxo-4,5-dihydro-2H-6-pyridazinyl)-benzimidazole]",–,–,–,–,–,–,–,–,EC50 [4]: 50 nM
"Cc1nc2cc(C3=NNC(=O)CC3C)ccc2n1Cc1ccccc1 (stereo not drawn) [M, 1-Benzyl-2-methyl-5-(5-methyl-3-oxo-4,5-dihydro-2H-6-pyridazinyl)-benzimidazole]",-37 mgm Hg,-33 mgm Hg,> 62 min,-57 mgm Hg,-48 mgm Hg,> 110 min,123%,106%,–
"COc1ccc(-c2nc3cc(C4=NNC(=O)C(C)C4)ccc3[nH]2)c(OC)c1 (stereo not drawn) [O, 2-(2,4-Dimethoxy-phenyl)-5(6)-(4-methyl-3-oxo-4,5-dihydro-2H-6-pyridazinyl)-benzimidazole, reference compound]",–,–,–,+15 mgm Hg,6 mgm Hg,2 min,–,10%,–
"COc1ccc(-c2nc3cc(C4=NNC(=O)C(C)C4)ccc3[nH]2)cc1 (stereo not drawn) [P, 2-(4-Methoxy-phenyl)-5(6)-(4-methyl-3-oxo-4,5-dihydro-2H-6-pyridazinyl)-benzimidazole, reference compound]",–,–,–,-10 mgm Hg,-10 mgm Hg,1 min,–,9%,"Change of blood pressure, first value of the pair (before the slash) ([1]; 2.0 mg/kg i.v.): -35 mgm Hg; Change of blood pressure, second value of the pair (after the slash) ([1]; 2.0 mg/kg i.v.): -35 mgm Hg; Duration of action ([1]; 2.0 mg/kg i.v.): 1 min; change in vivo at 2 mg/kg ([1]; 2.0 mg/kg i.v.): 5%"
"COc1ccc(-c2nc3cc(C4=NN(C)C(=O)C(C)C4)ccc3[nH]2)cc1 (stereo not drawn) [Q, 2-(4-Methoxy-phenyl)-5(6)-(2,4-dimethyl-3-oxo-4,5-dihydro-2H-6-pyridazinyl)-benzimidazole, reference compound]",–,–,–,-12 mgm Hg,-12 mgm Hg,11 min,–,-16%,"Change of blood pressure, first value of the pair (before the slash) ([1]; 2.0 mg/kg i.v.): -40 mgm Hg; Duration of action ([1]; 2.0 mg/kg i.v.): 3 min; change in vivo at 2 mg/kg ([1]; 2.0 mg/kg i.v.): -26%"
